The results in this text go back to patent US20070179060A1, “6-(Poly-substituted aryl)-4-aminopicolinates and their use as herbicides” (priority 2006, published 2007).

In data set [1] the test system is Monochoria vaginalis. Nature of the data set: Herbicidal activity in transplanted paddy rice. Type of data set: in vivo. The note with it: paddy water application, after 3 weeks; for pest or weed control at 70 g/ha: 70 g ai/ha. As for the experimental part:
(§1) Weed seeds or nutlets of the desired test plant species were planted in puddled soil (mud) prepared by mixing a non-sterilized mineral soil (28 percent silt, 18 percent clay, and 54 percent sand, with a pH of about 7.3 to 7.8 and an organic matter content of about 1.0 percent) and water at a ratio of 100 kg of soil to 19 L of water. The prepared mud was dispensed in 250 mL aliquots into 480 mL non-perforated plastic pots with a surface area of 91.6 square centimeters leaving a headspace of 3 centimeters in each pot. […] Seedlings at the second or third leaf stage of growth were transplanted into 650 mL of mud contained in 960 mL non-perforated plastic pots with a surface area of 91.6 square centimeters 4 days prior to herbicide application. The paddy was created by filling the 3 centimeter headspace of the pots with water. When required to ensure good germination and healthy plants, a fungicide treatment and/or other chemical or physical treatment was applied. The plants were grown for 4-14 days in a greenhouse with an approximate 14 hour photoperiod which was maintained at about 29° C. during the day and 26° C. during the night. Nutrients were added as Osmocote (17:6:10, N:P:K+minor nutrients) at 2 g per pot. Water was added on a regular basis to maintain the paddy flood, and supplemental lighting was provided with overhead metal halide 1000-Watt lamps as necessary. The plants were employed for testing when they reached the second or third true leaf stage. A weighed amount, determined by the highest rate to be tested, of each test compound was placed in a 120 mL glass vial and was dissolved in 20 mL of acetone to obtain concentrated stock solutions. […] Application rates of ½×, ¼×, ⅛× and 1/16× of the high rate were obtained by injecting an appropriate amount of the stock solution into the aqueous layer of the paddy. Control plants were treated in the same manner with the solvent blank. The treated plants and control plants were placed in a greenhouse as described above and water was added as needed to maintain a paddy flood.

Data set [2] relates to Echinochloa crus-galli. Put plainly: Herbicidal activity in transplanted paddy rice. Type of data set: in vivo. The note with it: paddy water application, after 3 weeks; for pest or weed control at 70 g/ha: 70 g ai/ha. As for the experimental part:
as §1

Data set [3] concerns rice (Orysa sativa var. Japonica). Nature of the data set: Herbicidal activity in transplanted paddy rice. Type of data set: in vivo. The note with it: transplant rice (crop), paddy water application, after 3 weeks; for pest or weed control at 70 g/ha: 70 g ai/ha. As for the experimental part:
as §1

Data set [4] has as its system Scirpus juncoides. Nature of the data set: Herbicidal activity in transplanted paddy rice. Type of data set: in vivo. The note with it: paddy water application, after 3 weeks; for pest or weed control at 70 g/ha: 70 g ai/ha. As for the experimental part: as §1
Data set [5] deals with Cyperus difformis. Put plainly: Herbicidal activity in transplanted paddy rice. Type of data set: in vivo. The note with it: paddy water application, after 3 weeks; for pest or weed control at 70 g/ha: 70 g ai/ha. As for the experimental part:
as §1

The subject of data set [6] is redroot pigweed (Amaranthus retroflexus). Nature of the data set: Postemergence herbicidal activity. Type of data set: in vivo. The note with it: Amaranthus retroflexus, post-emergence, 336 h, post-emergent, 140 g ai/ha, after 14 days; read-out: % Control AMARE. In short, it runs like this:
(§2)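 Plants grown 7-21 days in greenhouse (about 15 h photoperiod, 23-29° C day, 22-28° C night) to first or second true leaf stage. Compounds in acetone/water/isopropanol/DMSO carrier with crop oil concentrate and Triton X-155 sprayed overhead at 187 L/ha; controls received solvent blank. Plants sub-irrigated afterwards; dose responses analysed by probit analysis.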

Data set [7] deals with lambsquarter (Chenopodium album). Nature of the data set: Postemergence herbicidal activity. Type of data set: in vivo. Particulars: Chenopodium album, post-emergence, 336 h, post-emergent, 140 g ai/ha, after 14 days; read-out: % Control CHEAL. In short, it runs like this:
as §2

The subject of data set [8] is velvetleaf (Abutilon theophrasti). Put plainly: Postemergence herbicidal activity. Type of data set: in vivo. The note with it: Abutilon theophrasti, post-emergence, 336 h, post-emergent, 140 g ai/ha, after 14 days; read-out: % Control ABUTH. In short, it runs like this: as §2
The mark [9] stands for this setting: Pontederia vaginalis, 504 h, read-out: % Control MOOVA.
Where [10] appears, read: Echinochloa crus-galli, 504 h, read-out: % Control ECHCG.
The mark [11] stands for this setting: Schoenoplectiella juncoides, 504 h, read-out: % Control SCPJU.
[12] abbreviates: Cyperus difformis, 504 h, read-out: % Control CYPDI.

Each structure is given as a SMILES string.

Usually melting point stands for the temperature, or range, at which the solid turns liquid. `COC(=O)c1nc(-c2ccc(Cl)c(C(F)F)c2F)cc(N)c1Cl` [Compound 4, 4-Amino-3-chloro-6-(4-chloro-2-fluoro-3-difluoromethylphenyl)pyridine-2-carboxylic acid methyl ester]: the melting point was in the range of 145 to 146 °C. Besides, in data set [1] (Pontederia vaginalis, 504 h, 17.5 g ai/ha, read-out: % Control MOOVA), the pest or weed control at 17.5 g/ha came to 100%. In addition, in data set [2] (Echinochloa crus-galli, 504 h, 17.5 g ai/ha, read-out: % Control ECHCG), the pest or weed control at 17.5 g/ha was found to be 0%. The pest or weed control at 17.5 g/ha in [3] (Oryza sativa, 504 h, 17.5 g ai/ha) came to 0%. The pest or weed control at 17.5 g/ha in data set [4] (Schoenoplectiella juncoides, 504 h, 17.5 g ai/ha, read-out: % Control SCPJU) stood at 70%. Besides, the pest or weed control at 17.5 g/ha in [5] (Cyperus difformis, 504 h, 17.5 g ai/ha, read-out: % Control CYPDI) was 95%. In addition, in data set [6], the pest or weed control at 140 g/ha stood at 100%. Also, the pest or weed control at 140 g/ha in data set [7] was determined as 85%. Further, the pest or weed control at 140 g/ha in [8] was 100%.

In the case of `COC(=O)c1nc(-c2ccc(Cl)c(CF)c2F)cc(N)c1Cl` [Compound 5, 4-Amino-3-chloro-6-(4-chloro-2-fluoro-3-fluoromethylphenyl)pyridine-2-carboxylic acid methyl ester], the pest or weed control at 70 g/ha in data set [1] (setting [9]) was 100%; in [2] (setting [10]) it was 20%; in [3] (Oryza sativa, 504 h) it was 0%; in data set [4] (setting [11]), 90%; in data set [5] (setting [12]), 100%. In addition, the pest or weed control at 140 g/ha in data set [6] was determined as 35%; in data set [7], 90%; in data set [8], 100%.

Molecule `CCOc1c(Cl)ccc(-c2cc(N)c(Cl)c(C(=O)OC)n2)c1Cl` [Compound 7, 4-Amino-3-chloro-6-(2,4-dichloro-3-ethoxyphenyl)pyridine-2-carboxylic acid methyl ester] came in with a melting point of 132 to 133 °C. Further, the pest or weed control at 70 g/ha in [1] (setting [9]) turned out to be 100%. In addition, the pest or weed control at 70 g/ha in [2] (setting [10]) is 100%. Further, the pest or weed control at 70 g/ha in data set [3] (Oryza sativa, 504 h) is 10%. In addition, the pest or weed control at 70 g/ha in data set [4] (setting [11]) worked out at 85%. The pest or weed control at 70 g/ha in data set [5] (setting [12]) stood at 100%. Further, in data set [6], the pest or weed control at 140 g/ha is 90%. The pest or weed control at 140 g/ha in [7] is 95%. Further, in data set [8], the pest or weed control at 140 g/ha was found to be 100%.

With `CCOC(=O)c1nc(-c2ccc(Cl)c(OC)c2F)cc(N)c1Cl` [Compound 86, 4-amino-3-chloro-6-(4-chloro-2-fluoro-3-methoxyphenyl)-pyridine-2-carboxylic acid, ethyl ester], the pest or weed control at 70 g/ha in data set [1] (setting [9]) turned out to be 100%; in data set [2] (setting [10]), 25%; in data set [3] (Oryza sativa, 504 h), 10%; in [4] (setting [11]) it was 95%; in data set [5] (setting [12]), 100%. In addition, the pest or weed control at 140 g/ha in [6], in data set [7] and in data set [8] was 100% throughout.

On to `CCCCOC(=O)c1nc(-c2c(F)cc(Cl)c(OC)c2F)cc(N)c1Cl` [Compound 88, 4-Amino-3-chloro-6-(4-chloro-2,6-difluoro-3-methoxyphenyl)pyridine-2-carboxylic acid, butyl ester], for which the pest or weed control at 70 g/ha in data set [1] (setting [9]) stood at 100%; in data set [2] (setting [10]) it was 100%; in [3] (Oryza sativa, 504 h), 10%; in [4] (setting [11]) it was 100%; in data set [5] (setting [12]), 100%.

As for `CCCCOC(=O)c1nc(-c2ccc(Cl)c(OC)c2Cl)cc(N)c1Cl` [Compound 89, 4-Amino-3-chloro-6-(2,4-dichloro-3-methoxyphenyl)pyridine-2-carboxylic acid, butyl ester], the pest or weed control at 70 g/ha amounted to 100% in data set [1] (setting [9]); 85% in [2] (setting [10]); 0% in data set [3] (Oryza sativa, 504 h); 90% in [4] (setting [11]); 100% in [5] (setting [12]).

For the molecule `CCN(CC)CC.COc1c(Cl)ccc(-c2cc(N)c(Cl)c(C(=O)O)n2)c1Cl` [Compound 136, 4-Amino-3-chloro-6-(2,4 dichloro-3-methoxyphenyl)pyridine-2-carboxylic acid, triethyl amine salt], in data set [1] (35 g ai/ha), the “% Control MOOVA” value came to 100%. Moreover, the “% Control ECHCG” value in data set [2] (35 g ai/ha) amounted to 15%. The “% Control ORYSA” value in [3] (35 g ai/ha) is on record as 0%. For the same molecule, the “% Control SCPJU” value in data set [4] (35 g ai/ha) is 80%. Moreover, the “% Control CYPDI” value in data set [5] (35 g ai/ha) worked out at 100%.
